ChEMBL document CHEMBL3045210, “Inhibition of trans-Cinnamate 4-Hydroxylase by 4-Amino-5-aryl-2,3-dihydro-3H-1,2,4-triazole-3-thiones” (J Pestic Sci, 2005)
The source made the active and inactive calls. The calls are words filed in the database; no cut-off is given here.

Each molecule was assayed against T1, Trans-cinnamate 4-monooxygenase (Populus kitakamiensis, UniProt Q43054) (assay: Inhibition of Populus sieboldii x Populus grandidentata trans-cinnamate 4-hydroxylase assessed as p-coumaric acid level).
T1 sequence (Q43054 whole entry): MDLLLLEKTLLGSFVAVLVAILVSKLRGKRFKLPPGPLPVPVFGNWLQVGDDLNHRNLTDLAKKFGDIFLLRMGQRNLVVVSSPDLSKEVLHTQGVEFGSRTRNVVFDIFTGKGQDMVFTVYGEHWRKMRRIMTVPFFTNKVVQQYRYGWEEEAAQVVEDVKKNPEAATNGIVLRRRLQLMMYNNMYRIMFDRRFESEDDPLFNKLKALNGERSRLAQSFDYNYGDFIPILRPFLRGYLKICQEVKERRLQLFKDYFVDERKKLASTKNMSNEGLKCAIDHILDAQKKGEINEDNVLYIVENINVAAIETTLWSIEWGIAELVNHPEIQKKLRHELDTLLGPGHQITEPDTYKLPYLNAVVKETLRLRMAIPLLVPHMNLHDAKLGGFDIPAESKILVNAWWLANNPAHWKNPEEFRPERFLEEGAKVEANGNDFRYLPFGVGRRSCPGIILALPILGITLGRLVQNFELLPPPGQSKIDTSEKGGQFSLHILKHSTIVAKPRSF

SMILES | IC50 [µM]
Cc1cccc(-c2n[nH]c(=S)n2N)c1 | 3.6
Nn1c(S)nnc1-c1ccccc1 | 0.32
Nn1c(-c2ccccn2)n[nH]c1=S | 45
Nn1c(-c2ccncc2)n[nH]c1=S | 13
Nn1c(-c2ccc(O)cc2)n[nH]c1=S | > 100
Nn1c(-c2cccc(F)c2)n[nH]c1=S | 3.9
Nn1c(-c2cccnc2)n[nH]c1=S | 51
Nn1c(-c2cccs2)n[nH]c1=S | 45
Nn1c(S)nnc1-c1ccco1 | > 100
Nn1c(-c2ccc(Cl)cc2)n[nH]c1=S | > 100
Nn1c(-c2cccc(Cl)c2)n[nH]c1=S | 5
Cc1ccc(-c2n[nH]c(=S)n2N)cc1 | > 100
Nn1c(-c2ccccc2Cl)n[nH]c1=S | > 100

The molecules below were run on Solanum tuberosum (assay: Induction of accumulation of trans-cinnamic acid in Solanum tuberosum (potato) tubers at 0.02 to 20 ng/disk after 24 hr relative to laminarin).
Format: functional

SMILES | fold change (FC)
Nn1c(S)nnc1-c1ccccc1 | 3

The molecules below were run against T2, Trans-cinnamate 4-monooxygenase (Populus kitakamiensis) (UniProt Q43054) (assay: Mixed-type inhibition of Populus sieboldii x Populus grandidentata trans-cinnamate 4-hydroxylase by Lineweaver-Burk plot analysis).
T2 sequence (whole entry): T1 sequence (Q43054 whole entry)

SMILES | inhibition
Nn1c(S)nnc1-c1ccccc1 | Active
